Measured values reported in paper PMC6602942, “Vertebrates originally possess four functional subtypes of G protein-coupled melatonin receptor” (Scientific Reports, 2019).
Values joined by “and” are separate entries in the source; they are usually repeats but may differ in a detail not shown here. Equal entries are not always repeated. Where two headings read alike, the source gives them in different places. One block for each compound: values may come before it.

Legend:
medaka MTNR1a [1] = target: T1, medaka MTNR1a (Oryzias latipes, UniProt H2LVT7); assay: cAMP-responsive (CRE-luc) reporter gene assay, agonist mode; format: cell-based; details: for RAA (%) MTNR1a (relative agonistic activity): maximal activity as percentage of that of melatonin; for agonistic activity in medaka MTNR1a: reporter assay without melatonin
Excerpt: (§1) Expression vectors for medaka mtnr genes, (pcDNA-OlMTNR1a, pcDNA-OlMTNR1b, pcDNA-OlMTNR1c and pcDNA-OlMTNR1a-like) were constructed by PCR amplification of the entire protein coding region, using primers which introduced in-frame Kozak sequence[33] at the 5′ end. A cyclic adenosine monophosphate (cAMP)-regulated reporter vector containing the luciferase gene under the control of a cAMP response element upstream of the TATA-like promoter region from the herpes simplex virus thymidine kinase promoter, named pCRE-luc, originated from the Pathway Profiling Luciferase System (Clontech). Hepa-E1 cells, i.e. epithelial-like Nile tilapia hepatocytes, were obtained from the Institute of Physical and Chemical Research (RIKEN) cell bank (Tsukuba, Japan). For MTNR1a, MTNR1b and MTNR1d, stable transfections were performed as described below. Hepa-E1 cells were seeded in 9 cm dishes prior to transfection. Both plasmids, pCRE-luc as well as expression vectors for medaka mtnrs were linearized by […] and transfected with X-tremeGENE 9 (Roche) according to the manufacturer’s instructions. Stably transfected cells were selected with G418. After selection, each colony was collected by pipetting. Sensitivity for cAMP in each clone was tested by forskolin treatment after seeding into 96-well plates with E-RDF medium (Kyokuto, Tokyo, Japan) and supplemented with 5% dextran-charcoal treated fetal bovine serum. After 24 h the cells were collected, and cellular luciferase activities were measured by luminescence assay with the Steady-Glo Assay System Kit (Promega) according to the manufacturer’s instructions. Forskolin-sensitive cell lines derived from co-transfection of pCRE-luc and pcDNA3.1(+) were developed as control lines and named null-CRE-luc. Forskolin-sensitive cell lines derived from co-transfection of pCRE-luc and each pcDNA-OlMTNR1 were selected for by sensitivity for melatonin.
(§2) For MTNR1c, transient transfection was performed as outlined below. The MTNR1c experiment was performed using Hepa-E1 cells in 9 cm dishes, which were transiently transfected by pcDNA-OlMTNR1c (500 ng) and pCRE-luc (5000 ng) by TransIT-X2 Dynamic Delivery System (Mirus) and incubated 24 h before seeding, following the manufacturer’s instructions. Cells derived from a chosen clone or MRNR1c-tranfected cells were seeded at 10^4 cells per well in 96-well luminometer plates. Then, cells were treated with test chemicals in triplicate at four-fold serial dilutions in the presence or absence of melatonin with 6.25 × 10^−7 M forskolin. For testing the antagonistic effect, reagents were mixed with melatonin at 90% effective concentration (EC90). Negative control wells were dosed with media plus 0.1% ethanol. Positive control wells were dosed with 1 μM melatonin. After 24 h, luciferase activities were measured as described above. Concentration-response curves were fitted and the EC50 or IC50 were calculated using sigmoidal fit in GraphPad Prism5. The relative agonistic activity (RAA) of each reagent was expressed as a percentage of the maximal activity for the reporter induction to that of melatonin. The antagonistic index (AI) of each reagent was expressed as a percentage of the maximal inhibition of the reagent. Maximal inhibition was calculated as the quotient of the subtraction of the luminescence for melatonin from the maximal luminescence for the reagent divided by the maximal inhibition of melatonin. When the reagent inhibits the transactivity to the same level of that of the vehicle control (forskolin), the AI equals 100%.

[2] = target: T2, medaka MTNR1a-like (MTNR1d) (Oryzias latipes, UniProt A0A3B3HMP3); assay: as above; format: cell-based; details: for Emax: read-out: RAA (%) MTNR1a-like (relative agonistic activity); for agonistic activity in medaka MTNR1d: reporter assay without melatonin
Excerpt: as §1, §2

medaka MTNR1b [3] = target: T3, medaka MTNR1b (Oryzias latipes, UniProt A0ACM8R453); assay: as above; format: cell-based; details: for RAA (%) MTNR1b (relative agonistic activity): maximal activity as percentage of that of melatonin, Hepa-E1 cells, forskolin, ND: not detected
T3 sequence (A0ACM8R453 1-364): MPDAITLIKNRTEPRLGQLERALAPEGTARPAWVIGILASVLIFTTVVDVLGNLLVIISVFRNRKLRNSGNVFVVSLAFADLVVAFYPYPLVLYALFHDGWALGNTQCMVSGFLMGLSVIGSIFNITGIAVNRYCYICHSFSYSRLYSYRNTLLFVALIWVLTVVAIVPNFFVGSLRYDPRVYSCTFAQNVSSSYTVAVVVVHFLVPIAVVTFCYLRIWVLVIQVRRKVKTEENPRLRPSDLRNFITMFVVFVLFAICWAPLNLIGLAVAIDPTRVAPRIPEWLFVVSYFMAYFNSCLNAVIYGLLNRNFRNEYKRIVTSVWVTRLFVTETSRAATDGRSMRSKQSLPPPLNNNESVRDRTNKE
Excerpt: as §1, §2

medaka MTNR1c [4] = target: T4, medaka MTNR1c (Oryzias latipes, UniProt A0A0D6A8H7); assay: as above; format: cell-based; details: for Emax / RAA (%) MTNR1c (relative agonistic activity): maximal activity as percentage of that of melatonin, Hepa-E1 cells, forskolin, ND: not detected; for Emax: read-out: RAA (%) MTNR1c (relative agonistic activity)
Excerpt: as §1, §2

medaka MTNR1b [5] = target: T3, medaka MTNR1b; assay: cAMP-responsive (CRE-luc) reporter gene assay, antagonist mode with EC90 melatonin; format: cell-based; details: for AI (%) MTNR1b (antagonistic index): maximal inhibition of melatonin (EC90) effect, 100% = forskolin level, ND: not detected
Excerpt: as §1
(§3) For MTNR1c, transient transfection was performed as outlined below. […] After 24 h, luciferase activities were measured as described above. Concentration-response curves were fitted and the EC50 or IC50 were calculated using sigmoidal fit in GraphPad Prism5. The relative agonistic activity (RAA) of each reagent was expressed as a percentage of the maximal activity for the reporter induction to that of melatonin. The antagonistic index (AI) of each reagent was expressed as a percentage of the maximal inhibition of the reagent. Maximal inhibition was calculated as the quotient of the subtraction of the luminescence for melatonin from the maximal luminescence for the reagent divided by the maximal inhibition of melatonin. […]

medaka MTNR1c [6] = target: T4, medaka MTNR1c; assay: as above; format: cell-based; details: maximal inhibition of melatonin (EC90) effect; 100% = forskolin level; ND: not detected
Excerpt: as §1, §3

medaka MTNR1a [7] = target: T1, medaka MTNR1a; details: maximal inhibition of melatonin (EC90) effect; 100% = forskolin level; ND: not detected
Protocol: (§4) Hepa-E1 cells were seeded in 9 cm dishes prior to transfection. Both plasmids, pCRE-luc as well as expression vectors for medaka mtnrs were linearized by PCR and transfected with X-tremeGENE 9 (Roche) according to the manufacturer’s instructions. Stably transfected cells were selected with G418. After selection, each colony was collected by pipetting. Sensitivity for cAMP in each clone was tested by forskolin treatment after seeding into 96-well plates with E-RDF medium (Kyokuto, Tokyo, Japan) and supplemented with 5% dextran-charcoal treated fetal bovine serum. After 24 h the cells were collected, and cellular luciferase activities were measured by luminescence assay with the Steady-Glo Assay System Kit (Promega) according to the manufacturer’s instructions. […]
(§5) Cells derived from a chosen clone or MRNR1c-tranfected cells were seeded at 10^4 cells per well in 96-well luminometer plates. […] After 24 h, luciferase activities were measured as described above. Concentration-response curves were fitted and the EC50 or IC50 were calculated using sigmoidal fit in GraphPad Prism5. […] The antagonistic index (AI) of each reagent was expressed as a percentage of the maximal inhibition of the reagent. Maximal inhibition was calculated as the quotient of the subtraction of the luminescence for melatonin from the maximal luminescence for the reagent divided by the maximal inhibition of melatonin. […]

[8] = target: T2, medaka MTNR1a-like (MTNR1d); details: maximal inhibition of melatonin (EC90) effect; 100% = forskolin level; ND: not detected
Protocol: as §4, §5

[9] = stably transfected Hepa-E1 cells, 6.25 × 10^−7 M forskolin, 24 h, NC: not calculable (low activity, curve did not reach maximum), read-out: Potency (M) MTNR1a
[10] = maximal activity as percentage of that of melatonin, Hepa-E1 cells, forskolin, 24 h, ND: not detected
[11] = stably transfected Hepa-E1 cells, 6.25 × 10^−7 M forskolin, 24 h, NC: not calculable (low activity, curve did not reach maximum), read-out: Potency (M) MTNR1a-like
[12] = 24 h, listed as 2-Iodomelatonin

T2 sequence (A0A3B3HMP3 1-354): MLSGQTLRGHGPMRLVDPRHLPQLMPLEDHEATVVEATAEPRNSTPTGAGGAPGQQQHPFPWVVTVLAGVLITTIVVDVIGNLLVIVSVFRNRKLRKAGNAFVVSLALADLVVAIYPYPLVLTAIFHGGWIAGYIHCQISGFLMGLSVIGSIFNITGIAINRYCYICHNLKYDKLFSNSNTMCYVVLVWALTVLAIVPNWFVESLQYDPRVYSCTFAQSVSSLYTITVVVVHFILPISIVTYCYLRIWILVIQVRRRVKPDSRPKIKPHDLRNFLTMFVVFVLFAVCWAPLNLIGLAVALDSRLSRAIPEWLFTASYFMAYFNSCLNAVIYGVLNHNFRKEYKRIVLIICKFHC
T4 sequence (A0A0D6A8H7 entry or part of it): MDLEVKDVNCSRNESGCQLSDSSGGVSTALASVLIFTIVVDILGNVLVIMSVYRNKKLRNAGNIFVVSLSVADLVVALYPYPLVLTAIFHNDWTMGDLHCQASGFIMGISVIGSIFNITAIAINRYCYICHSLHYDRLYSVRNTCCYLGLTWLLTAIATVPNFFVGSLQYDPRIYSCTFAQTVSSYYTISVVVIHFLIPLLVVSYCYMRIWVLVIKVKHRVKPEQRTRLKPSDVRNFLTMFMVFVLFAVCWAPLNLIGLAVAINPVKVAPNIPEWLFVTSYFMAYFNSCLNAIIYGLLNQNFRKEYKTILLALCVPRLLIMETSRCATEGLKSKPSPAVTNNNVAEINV
T1 sequence (H2LVT7 1-347): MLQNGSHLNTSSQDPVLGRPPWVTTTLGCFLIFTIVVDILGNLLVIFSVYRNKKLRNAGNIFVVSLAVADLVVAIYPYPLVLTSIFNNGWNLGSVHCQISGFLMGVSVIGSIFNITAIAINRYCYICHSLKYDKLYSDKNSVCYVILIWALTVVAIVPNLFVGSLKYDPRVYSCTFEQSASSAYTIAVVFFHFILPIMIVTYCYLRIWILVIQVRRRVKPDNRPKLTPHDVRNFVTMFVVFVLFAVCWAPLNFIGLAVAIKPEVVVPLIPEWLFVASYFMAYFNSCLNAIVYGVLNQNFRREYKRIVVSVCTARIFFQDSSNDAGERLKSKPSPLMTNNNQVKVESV

SMILES: COc1ccc2[nH]cc(CCNC(C)=O)c2c1 [Melatonin, N-acetyl-5-methoxytryptamine]
- EC50 (medaka MTNR1a [1]): 4.8e-10 M
- Emax (medaka MTNR1a [1]; 24 h, read-out: RAA (%) MTNR1a (relative agonistic activity), maximal activity as percentage of that of melatonin, Hepa-E1 cells, forskolin, 24 h, ND: not detected): 100 ± 3.8%
- EC50 [2]: 2.2e-08 M
- Emax ([2]; 24 h): 100 ± 2.9%
- EC50 (medaka MTNR1b [3]): 1.9e-09 M
- Emax (medaka MTNR1b [3]; 24 h, read-out: RAA (%) MTNR1b (relative agonistic activity)): 100 ± 4.4%
- EC50 (medaka MTNR1c [4]): 6.2e-11 M
- Emax (medaka MTNR1c [4]; 24 h, 24 h): 100 ± 1.8%
- potency for melatonin of MTNR1c compared with MTNR1d/MTNR1a-like (medaka MTNR1c [4]; ratio of potencies between subtypes): more than three hundred-fold

- RAA (%) MTNR1a (relative agonistic activity) (medaka MTNR1a [1]; Hepa-E1 cells, forskolin, 24 h, ND: not detected, 1440 min): 68.2 ± 3.8%
- RAA (%) MTNR1a (relative agonistic activity) (medaka MTNR1a [1]; Hepa-E1 cells, forskolin, 24 h, ND: not detected, listed as luzindole, 1440 min): less than 100%
- agonistic activity in medaka MTNR1a (medaka MTNR1a [1]): exhibited agonistic activity
- EC50 (medaka MTNR1a [1]; [9]): 3.3e-07 M
- EC50 ([2]; MTNR1d (MTNR1a-like) transfected Hepa-E1 cells, cAMP-responsive reporter, read-out: EC50 MTNR1d): > 1e-06 M
- Emax [2, 10]: 83.1%
- agonistic activity in medaka MTNR1d [2]: exhibited agonistic activity
- Emax (medaka MTNR1c [4]; 24 h, 24 h): 118%
- EC50 (medaka MTNR1c [4]; MTNR1c-transfected Hepa-E1 cells, cAMP-responsive reporter, read-out: EC50 MTNR1c): > 1e-06 M
- RAA (%) MTNR1c (relative agonistic activity) (medaka MTNR1c [4]; 24 h, 1440 min): 117.6 ± 11.5%
- AI (%) MTNR1b (antagonistic index) (medaka MTNR1b [5]): did not exhibit inhibition
- AI (%) MTNR1c (antagonistic index) (medaka MTNR1c [6]): did not exhibit inhibition
- AI (%) MTNR1a (antagonistic index) (medaka MTNR1a [7]): did not exhibit inhibition
- AI (%) MTNR1a-like (antagonistic index) [8]: did not exhibit inhibition
SMILES: CC(=O)NCCc1c(Cc2ccccc2)[nH]c2ccccc12 [Luzindole]

- agonistic activity in medaka MTNR1a (medaka MTNR1a [1]): exhibited agonistic activity
- EC50 (medaka MTNR1a [1]; [9]): 4.7e-09 M
- RAA (%) MTNR1a-like (relative agonistic activity) [2, 10]: 68.7% and 68.7 ± 6.4%
- agonistic activity in medaka MTNR1d [2]: exhibited agonistic activity
- EC50 [2, 11]: 1.2e-07 M
- agonistic effect on MTNR1c (medaka MTNR1c [4]; reporter assay without melatonin): no agonistic effects
- AI (%) MTNR1b (antagonistic index) (medaka MTNR1b [5]): 68.3% and 68.3 ± 8.0%
- IC50 (medaka MTNR1b [5]; with EC90 melatonin and forskolin, Hepa-E1 cells, 24 h, NC: not calculable, read-out: Potency (M) MTNR1b, antagonist): 1.9e-07 M
SMILES: CCC(=O)NC1Cc2ccccc2C(c2ccccc2)C1 (stereo not shown) [4P-PDOT]

SMILES: COc1ccc2[nH]c(I)c(CCNC(C)=O)c2c1 [2-Iodo melatonin, 2-Iodomelatonin]
- RAA (%) MTNR1a (relative agonistic activity) (medaka MTNR1a [1]; Hepa-E1 cells, forskolin, 24 h, ND: not detected): 95.8 ± 6.9%
- RAA (%) MTNR1a (relative agonistic activity) (medaka MTNR1a [1]; Hepa-E1 cells, forskolin, 24 h, ND: not detected, listed as 2-Iodomelatonin): less than 100%
- EC50 (medaka MTNR1a [1]; [9]): 2.7e-11 M
- RAA (%) MTNR1a-like (relative agonistic activity) [2, 10]: 69.3 ± 6.8%
- RAA (%) MTNR1a-like (relative agonistic activity) ([2]; maximal activity as percentage of that of melatonin, Hepa-E1 cells, forskolin, 24 h, ND: not detected, listed as 2-Iodomelatonin): 69.3%
- EC50 [2, 11]: 4e-10 M
- RAA (%) MTNR1b (relative agonistic activity) (medaka MTNR1b [3]; 24 h): 101.4 ± 2.8%
- RAA (%) MTNR1b (relative agonistic activity) (medaka MTNR1b [3]; [12]): equivalent to that of melatonin
- EC50 (medaka MTNR1b [3]; stably transfected Hepa-E1 cells, 6.25 × 10^−7 M forskolin, 24 h, NC: not calculable (low activity, curve did not reach maximum), read-out: Potency (M) MTNR1b): 3.9e-11 M
- RAA (%) MTNR1c (relative agonistic activity) (medaka MTNR1c [4]; 24 h): 111.8 ± 3.2%
- RAA (%) MTNR1c (relative agonistic activity) (medaka MTNR1c [4]; [12]): 112%
- EC50 (medaka MTNR1c [4]; transiently transfected Hepa-E1 cells, 6.25 × 10^−7 M forskolin, 24 h, NC: not calculable (low activity, curve did not reach maximum), read-out: Potency (M) MTNR1c): 1.3e-11 M
